Data set [1] is described as follows: Quantification of 1,8-cineole metabolites in human milk (SAFE, GC-MS, internal standard and matrix calibration) after oral intake of 100 mg 1,8-cineole. It counts as in vivo. The settings on record: for Absolute concentration in human milk: single determination. The method, boiled down:
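Lactating mothers took one capsule with 100 mg 1,8-cineole orally; milk expressed after eucalyptus odour noticed on breath (14 samples, 8 donors). Volatiles isolated by SAFE at 50 °C with deuterated 1,8-cineole internal standard, concentrated, and quantified by GC-MS on DB-FFAP and DB-5 columns; chiral columns for enantiomer ratios.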

Details of data set [2]: method as in PMID 20425757. The settings on record: one volunteer, sage tea, overall intake 1.02 mg 1,8-cineole; cited from earlier work.

For `CC1(C)OC2(C)CCC1CC2O` (stereo not drawn) [a2-hydroxy-1,8-cineole, α2-hydroxy-1,8-cineole], in data set [1] (after oral 100 mg 1,8-cineole, rounded summary), the “Concentration range in human milk (abstract/conclusions)” value was in the range of 100 to 250 µg/kg. The “Share of the metabolites on average” value in data set [1] (human milk, roughly estimated) is listed as “about 70%”. Also, in data set [1] (sample A-1a (no odour)), the “Estimated maximum level in human milk (concentration calculated with the last calibration point, in parentheses)” value is reported as below 1.37 µg/kg. Moreover, the “Absolute concentration in human milk” value is given as 0.65 µg/kg in data set [1] (sample A-1a (no odour), oral 100 mg 1,8-cineole, values given with (<x) lie beyond calibration range, approximation); 138.10 µg/kg in data set [1] (sample A-1b (odour yes), oral 100 mg 1,8-cineole, values given with (<x) are approximations); 176.30 µg/kg in data set [1] (sample B-1 (odour yes), oral 100 mg 1,8-cineole, values given with (<x) are approximations); 0.61 µg/kg in data set [1] (sample B-2a (no odour), oral 100 mg 1,8-cineole); 113.55 µg/kg in data set [1] (sample B-2b (odour yes), oral 100 mg 1,8-cineole, values given with (<x) are approximations); 29.25 µg/kg in data set [1] (sample B-2c (no odour), oral 100 mg 1,8-cineole). For the same compound, the “Absolute concentration in human milk” value in data set [1] (sample C (no odour; very weak odour not caused by 1,8-cineole), oral 100 mg 1,8-cineole, values given with (<x) are approximations) is 7.68 µg/kg; in data set [1] (sample D-1 (no odour), oral 100 mg 1,8-cineole, values given with (<x) are approximations) it was 15.08 µg/kg; in data set [1] (sample D-2 (odour yes), oral 100 mg 1,8-cineole, values given with (<x) are approximations) it was 135.98 µg/kg; in data set [1] (sample E-1 (no odour), oral 100 mg 1,8-cineole, values given with (<x) are approximations), 2.02 µg/kg; in data set [1] (sample E-2 (odour yes), oral 100 mg 1,8-cineole, values given with (<x) are approximations) it was 233.31 µg/kg; in data set [1] (sample F (no odour), parent ingested two capsules, values given with (<x) are approximations) it was 3.16 µg/kg. For the same compound, the “Absolute concentration in human milk” value in data set [1] (sample G (odour yes), oral 100 mg 1,8-cineole, values given with (<x) are approximations) stood at 98.83 µg/kg; in data set [1] (sample H (odour yes), oral 100 mg 1,8-cineole, values given with (<x) are approximations), 206.09 µg/kg. Also, in data set [1] (seven positive samples (eucalyptus-like odour), Figure 2), the “Concentration range in human milk samples” value was in the range of 99 to 233 µg/kg. Besides, the Concentration in plasma in data set [2] is listed as 14.62 µg/L.

Source of the values: article PMC3901259, “Characterisation of the Metabolites of 1,8-Cineole Transferred into Human Milk: Concentrations and Ratio of Enantiomers” (Metabolites, 2013).
